Laboratory results from US11964954B1 (KING FAISAL UNIVERSITY, priority 2023, dated 2024).

How the values were obtained:
[1] = system: human prostate cancer cells (PC3); test: Cytotoxicity by SRB assay, PC3 cells; assay type: cell-based; details: for IC50: mean±SD
Protocol: (§1) The human prostate cancer cells (PC3) and human osteosarcoma cells (MG-63) were obtained from Nawah Scientific Inc. (Mokatam, Cairo, Egypt) and cultured in DMEM (Dulbecco's modified eagle's medium), Gibco, USA, supplemented with fetal bovine serum (FBS) at a concentration of 10% and 100 U/mL of penicillin and streptomycin (PS). The cells were incubated at 37° C. in a humidified environment that contained 5% CO2.
(§2) Cells were seeded in 96-well plates as aliquots of 100 μL cell suspension and incubated in a complete media for 24 h. Afterward, cells were treated with N′-[(2-chlorobenzoyl)oxy]-1,3-benzothiazole-2-carboximidamide at diverse concentrations ranging from 0.01 μM to 100 μM for 72 h. Then, cells were fixed at 4° C. for one hour with 150 μL of 10% trichloroacetic acid (TCA). After washing the cells five times with distilled water, 70 μL of sulforhodamine (SRB) solution (0.4% w/v) was added and incubated for 10 min at room temperature in a dark place. Cells were washed with 1% acetic acid three times and allowed to air-dry. Then, 150 μL of Tris pH 10.5 (10 mM) was added, and the absorbance was measured at 540 nm using a BMG LABTECH®-FLUOstar Omega microplate reader (Ortenberg, Germany). Half maximal inhibitory concentrations (IC50) values were calculated for each experiment using GraphPad Prism 6 software. IC50 values were reported as mean±SD.
(§3) The inhibition was calculated using the following equation: Inhibition %=100-Average Viability

[2] = system: human osteosarcoma cells (MG-63); test: Cytotoxicity by SRB assay, MG-63 cells; assay type: cell-based; details: for IC50: mean±SD
Protocol: as §1, §2, §3

[3] = system: Bacillus cereus, Staphylococcus aureus, Pseudomonas aeruginosa, Escherichia coli, Aspergillus flavus, Chrysosporium keratinophilum; test: Agar plate disc-diffusion antimicrobial screening; assay type: cell-based; details: 10 μL of 10 mg/mL in DMSO per disc, result in words only
Protocol: The agar plate disc-diffusion method was applied. Sterilized filter papers (6 mm in diameter) were wetted with 10 μL of a solution of each compound to be tested, containing 10 mg/mL in DMSO, and the discs were allowed to air dry. The discs were then placed onto the surface of agar plates (nutrient agar for bacteria and Sabouraud's dextrose agar for fungi) and seeded with the test organism. Each plate contained 15 mL of the agar medium, previously seeded with 0.2 mL of the broth culture of each organism pre-grown for 18 h. The plates were incubated at 37° C. for 48 h, and 72 h for fungi. The inhibition zones were measured in mm. Discs impregnated with DMSO were used as a control, and its inhibition zone was subtracted from the tested compound actual inhibition zone.
In particular, the present N′-[(2-chlorobenzoyl)oxy]-1,3-benzothiazole-2-carboximidamide was screened against gram positive bacteria, namely Bacillus cereus and Staphylococcus aureus, and gram-negative bacterial strains, namely Pseudomonas aeruginosa and Escherichia coli, while the antifungal activity was screened against Aspergillus flavus and Chrysosporium keratinophilum.

melting point [°C]	SMILES	IC50 ([1]; Homo sapiens, PC-3, 72 h) [µM]	IC50 ([2]; Homo sapiens, MG-63, 72 h) [µM]	inhibition at 10 µg/mL ([1]; Homo sapiens, PC-3, 72 h, Prostate cancer (PC-3), 10 μg/ml, 72 h) [%]	inhibition at 100 µg/mL ([1]; Homo sapiens, PC-3, 72 h, Prostate cancer (PC-3), 100 μg/ml, 72 h) [%]	IC50 ([1]; PC-3, 72 h) [µM]	Inhibition % ([1]; Prostate cancer (PC-3), 10 μg/ml, 72 h, listed as N'-[(2-chlorobenzoyl)oxy]-1,3-benzothiazole-2-carboximidamide) [%]	inhibition at 10 µg/mL ([2]; Homo sapiens, MG-63, 72 h, Osteosarcoma (MG-63), 10 μg/ml, 72 h) [%]	inhibition at 100 µg/mL ([2]; Homo sapiens, MG-63, 72 h, Osteosarcoma (MG-63), 100 μg/ml, 72 h) [%]	IC50 ([2]; MG-63, 72 h) [µM]	Inhibition % ([2]; Osteosarcoma (MG-63), 10 μg/ml, 72 h, listed as N'-[(2-chlorobenzoyl)oxy]-1,3-benzothiazole-2-carboximidamide) [%]	antimicrobial activity [3]
	COc1cccc2c1C(=O)c1c(O)c3c(c(O)c1C2=O)C[C@@](O)(C(=O)CO)C[C@@H]3O[C@H]1C[C@H](N)[C@H](O)[C@H](C)O1 [DOX, Doxorubicin, reference compound]	7.6 ± 0.45	9.4 ± 1.1									
110 to 112	N/C(Cc1nc2ccccc2s1)=N\OC(=O)c1ccccc1Cl	< 4	< 4	95	96	2.69 ± 0.03	95.61	95	91.3	3.45	90.17	excellent antimicrobial activities
